Measurements published in US20260250290A1 (BRISTOL-MYERS SQUIBB COMPANY, priority 2023, published 2026).
Structures can show the parent of a compound that is named as a salt.

Target: T1, full length SGK1 (Homo sapiens, UniProt O00141)
T1 construct: 125 μM full length SGK1 (Life Technologies Part #PR7358A); purchased Life Technologies PR7358A
T1 sequence (O00141 1-431): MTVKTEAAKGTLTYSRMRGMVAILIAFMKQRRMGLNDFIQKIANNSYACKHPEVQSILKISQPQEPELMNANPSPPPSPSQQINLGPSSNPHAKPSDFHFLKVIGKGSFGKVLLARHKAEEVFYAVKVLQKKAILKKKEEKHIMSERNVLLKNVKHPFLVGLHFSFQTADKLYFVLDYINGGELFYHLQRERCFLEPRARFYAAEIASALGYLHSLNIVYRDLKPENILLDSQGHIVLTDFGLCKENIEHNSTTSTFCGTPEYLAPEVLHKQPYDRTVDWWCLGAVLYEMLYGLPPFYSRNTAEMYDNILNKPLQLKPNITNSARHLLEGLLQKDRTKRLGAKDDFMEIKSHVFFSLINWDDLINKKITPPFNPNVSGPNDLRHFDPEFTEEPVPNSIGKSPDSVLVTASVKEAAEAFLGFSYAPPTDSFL
Test: SGK1 inhibition Assay A (Caliper LabChip electrophoretic separation of fluorescent peptide substrate and phosphorylated product)
Format: biochemical
Details: Assay A; 20 μM ATP, 40 min incubation; read-out: SGK1 IC50

Row | SMILES | IC50 [µM]
1 | CCOc1ccsc1C(=O)N[C@@H]1CCCN(c2cc(-c3ccc(S(C)(=O)=O)cc3)n3ncnc(N)c23)C1 [Example 99, (R)-N-(1-(4-amino-7-(4-(methylsulfonyl)phenyl)pyrrolo[2,1-f][1,2,4]triazin-5-yl)piperidin-3-yl)-3-ethoxythiophene-2-carboxamide] | 0.007
2 | COc1cc(C)sc1C(=O)N[C@@H]1CCCN(c2cc(-c3ccc(S(C)(=O)=O)cc3)n3ncnc(N)c23)C1 [Example 100, (R)-N-(1-(4-amino-7-(4-(methylsulfonyl)phenyl)pyrrolo[2,1-f][1,2,4]triazin-5-yl)piperidin-3-yl)-3-methoxy-5-methylthiophene-2-carboxamide] | 0.008
3 | Cc1cnc(C(=O)N[C@@H]2CCCN(c3cc(-c4ccc(S(C)(=O)=O)cc4)n4ncnc(N)c34)C2)s1 [Example 101, (R)-N-(1-(4-amino-7-(4-(methylsulfonyl)phenyl)pyrrolo[2,1-f][1,2,4]triazin-5-yl)piperidin-3-yl)-5-methylthiazole-2-carboxamide] | 0.021
4 | COc1cncc(C(=O)N[C@@H]2CCCN(c3cc(-c4ccc(S(C)(=O)=O)cc4)n4ncnc(N)c34)C2)c1 [Example 102, (R)-N-(1-(4-amino-7-(4-(methylsulfonyl)phenyl)pyrrolo[2,1-f][1,2,4]triazin-5-yl)piperidin-3-yl)-5-methoxynicotinamide, TFA] | 0.045
5 | CS(=O)(=O)c1ccc(-c2cc(N3CCC[C@H](C(=O)Nc4nccs4)C3)c3c(N)ncnn23)cc1 [Example 103, (S)-1-(4-amino-7-(4-(methylsulfonyl)phenyl)pyrrolo[2,1-f][1,2,4]triazin-5-yl)-N-(thiazol-2-yl)piperidine-3-carboxamide] | 0.726
6 | CS(=O)(=O)c1ccc(-c2cc(N3CCC[C@@H](C(=O)Nc4nccs4)C3)c3c(N)ncnn23)cc1 [Example 104, (R)-1-(4-amino-7-(4-(methylsulfonyl)phenyl)pyrrolo[2,1-f][1,2,4]triazin-5-yl)-N-(thiazol-2-yl)piperidine-3-carboxamide] | 0.247
7 | CS(=O)(=O)c1ccc(-c2cc(N3CCC[C@@H](C(=O)Nc4ccccc4)C3)c3c(N)ncnn23)cc1 [Example 105, (R)-1-(4-amino-7-(4-(methylsulfonyl)phenyl)pyrrolo [2,1-f][1,2,4]triazin-5-yl)-N-phenylpiperidine-3-carboxamide] | 0.335
8 | CS(=O)(=O)c1ccc(-c2cc(N3CCC[C@@H](C(=O)NCc4ccccc4)C3)c3c(N)ncnn23)cc1 [Example 106, (R)-1-(4-amino-7-(4-(methylsulfonyl)phenyl)pyrrolo [2,1-f][1,2,4]triazin-5-yl)-N-benzylpiperidine-3-carboxamide] | 0.823
9 | CS(=O)(=O)N1CC=C(c2cc(N3CCC[C@@H](NC(=O)c4ccns4)C3)c3c(N)ncnn23)C1 [Example 112, (R)—N-(1-(4-amino-7-(1-(methylsulfonyl)-2,5-dihydro-1H-pyrrol-3-yl)pyrrolo[2,1-f][1,2,4]triazin-5-yl)piperidin-3-yl)isothiazole-5-carboxamide, TFA] | 0.004
10 | CS(=O)(=O)N1CC=C(c2cc(N3CCC[C@@H](NC(=O)c4ccccc4)C3)c3c(N)ncnn23)C1 [Example 113, (R)—N-(1-(4-amino-7-(1-(methylsulfonyl)-2,5-dihydro-1H-pyrrol-3-yl)pyrrolo[2,1-f][1,2,4]triazin-5-yl)piperidin-3-yl)benzamide, TFA] | 0.023
11 | COc1cc(C(=O)N[C@@H]2CCCN(c3cc(C4=CCN(S(C)(=O)=O)C4)n4ncnc(N)c34)C2)ccn1 [Example 114, (R)—N-(1-(4-amino-7-(1-(methylsulfonyl)-2,5-dihydro-1H-pyrrol-3-yl)pyrrolo[2,1-f][1,2,4]triazin-5-yl)piperidin-3-yl)-2-methoxyisonicotinamide] | 0.016
12 | COc1cc(C(=O)N[C@@H]2CCCN(c3cc(C4=CN(S(C)(=O)=O)CC4)n4ncnc(N)c34)C2)ccn1 [Example 115, (R)—N-(1-(4-amino-7-(1-(methylsulfonyl)-4,5-dihydro-1H-pyrrol-3-yl)pyrrolo[2,1-f][1,2,4]triazin-5-yl)piperidin-3-yl)-2-methoxyisonicotinamide] | 0.103
13 | Cc1cc(C(=O)N[C@@H]2CCCN(c3cc(C4=CCN(S(C)(=O)=O)C4)n4ncnc(N)c34)C2)ccn1 [Example 116, (R)—N-(1-(4-amino-7-(1-(methylsulfonyl)-2,5-dihydro-1H-pyrrol-3-yl)pyrrolo[2,1-f][1,2,4]triazin-5-yl)piperidin-3-yl)-2-methylisonicotinamide] | 0.012
14 | CS(=O)(=O)N1CC=C(c2cc(N3CCC[C@@H](NC(=O)c4ccnc(F)c4)C3)c3c(N)ncnn23)C1 [Example 117, (R)—N-(1-(4-amino-7-(1-(methylsulfonyl)-2,5-dihydro-1H-pyrrol-3-yl)pyrrolo[2,1-f][1,2,4]triazin-5-yl)piperidin-3-yl)-2-fluoroisonicotinamide, TFA] | 0.006
15 | CS(=O)(=O)N1C=C(c2cc(N3CCC[C@@H](NC(=O)c4ccnc(F)c4)C3)c3c(N)ncnn23)CC1 [Example 118, (R)—N-(1-(4-amino-7-(1-(methylsulfonyl)-4,5-dihydro-1H-pyrrol-3-yl)pyrrolo[2,1-f][1,2,4]triazin-5-yl)piperidin-3-yl)-2-fluoroisonicotinamide, TFA] | 0.13
16 | CC(C)c1cc(C(=O)N[C@@H]2CCCN(c3cc(C4=CCN(S(C)(=O)=O)C4)n4ncnc(N)c34)C2)on1 [Example 119, (R)—N-(1-(4-amino-7-(1-(methylsulfonyl)-2,5-dihydro-1H-pyrrol-3-yl)pyrrolo[2,1-f][1,2,4]triazin-5-yl)piperidin-3-yl)-3-isopropylisoxazole-5-carboxamide, TFA] | 0.018
17 | CC(C)(C)OC(=O)N[C@@H]1CCCCN(c2cc(-c3ccc(S(C)(=O)=O)cc3)n3ncnc(N)c23)C1 [Example 120, tert-butyl (R)-(1-(4-amino-7-(4-(methylsulfonyl)phenyl)pyrrolo[2,1-f][1,2,4]triazin-5-yl)azepan-3-yl)carbamate] | 3.4
18 | COc1cc(C(=O)N(C)[C@@H]2CCCN(c3cc(-c4ccc(S(C)(=O)=O)cc4)n4ncnc(N)c34)C2)ccn1 [Example 121, (R)—N-(1-(4-amino-7-(4-(methylsulfonyl)phenyl)pyrrolo[2,1-f][1,2,4]triazin-5-yl)piperidin-3-yl)-2-methoxy-N-methylisonicotinamide] | 0.383
19 | Cc1ccc(C(=O)N(C)[C@@H]2CCCN(c3cc(-c4ccc(S(C)(=O)=O)cc4)n4ncnc(N)c34)C2)s1 [Example 122, (R)—N-(1-(4-amino-7-(4-(methylsulfonyl)phenyl)pyrrolo[2,1-f][1,2,4]triazin-5-yl)piperidin-3-yl)-N,5-dimethylthiophene-2-carboxamide] | 0.029
20 | CN(C(=O)c1ccccc1)[C@@H]1CCCN(c2cc(-c3ccc(S(C)(=O)=O)cc3)n3ncnc(N)c23)C1 [Example 123, (R)—N-(1-(4-amino-7-(4-(methylsulfonyl)phenyl)pyrrolo[2,1-f][1,2,4]triazin-5-yl)piperidin-3-yl)-N-methylbenzamide] | 0.606
21 | Cc1ccc(C(=O)N[C@@H]2CCCN(c3cc(C4=CCN(S(C)(=O)=O)C4)n4ncnc(N)c34)C2)s1 [Example 124, (R)—N-(1-(4-amino-7-(1-(methylsulfonyl)-2,5-dihydro-1H-pyrrol-3-yl)pyrrolo[2,1-f][1,2,4]triazin-5-yl)piperidin-3-yl)-5-methylthiophene-2-carboxamide] | 0.002
22 | Cc1ccc(C(=O)N[C@@H]2CCCN(c3cc(C4=CN(S(C)(=O)=O)CC4)n4ncnc(N)c34)C2)s1 [Example 125] | 0.027
23 | Nc1ncnn2c(-c3ccncc3)cc(N3CCC[C@@H](NC(=O)c4ccccc4)C3)c12 [Example 126, N-[(3R)-1-[4-amino-7-(pyridin-4-yl)pyrrolo[2,1-f][1,2,4]triazin-5-yl]piperidin-3-yl]benzamide] | 0.005
24 | COc1cc(C(=O)N[C@@H]2CCCN(c3cc(-c4ccncc4)n4ncnc(N)c34)C2)ccn1 [Example 127, N-[(3R)-1-[4-amino-7-(pyridin-4-yl)pyrrolo[2,1-f][1,2,4]triazin-5-yl]piperidin-3-yl]-2-methoxypyridine-4-carboxamide] | 0.005
25 | Cc1ccc(C(=O)N[C@@H]2CCCN(c3cc(-c4ccncc4)n4ncnc(N)c34)C2)s1 [Example 128, N-[(3R)-1-[4-amino-7-(pyridin-4-yl)pyrrolo[2,1-f][1,2,4]triazin-5-yl]piperidin-3-yl]-5-methylthiophene-2-carboxamide] | 0.002
26 | Nc1ncnn2c(-c3ccnc(F)c3)cc(N3CCC[C@@H](NC(=O)c4ccc(Cl)s4)C3)c12 [Example 130, N-[(3R)-1-[4-amino-7-(2-fluoropyridin-4-yl)pyrrolo[2,1-f][1,2,4]triazin-5-yl]piperidin-3-yl]-5-chlorothiophene-2-carboxamide] | 0.019
27 | Cc1ccc(C(=O)N[C@@H]2CCCN(c3cc(-c4ccnc(F)c4)n4ncnc(N)c34)C2)s1 [Example 131, N-[(3R)-1-[4-amino-7-(2-fluoropyridin-4-yl)pyrrolo[2,1-f][1,2,4]triazin-5-yl]piperidin-3-yl]-5-methylthiophene-2-carboxamide] | 0.002
28 | Cc1cc(-c2cc(N3CCC[C@@H](NC(=O)c4ccc(Cl)s4)C3)c3c(N)ncnn23)ccn1 [Example 132, N-[(3R)-1-[4-amino-7-(2-methylpyridin-4-yl)pyrrolo[2,1-f][1,2,4]triazin-5-yl]piperidin-3-yl)-5-chlorothiophene-2-carboxamide] | 0.004
